# Source: paper PMC7819857, “Identification of Inhibitors of Integrin Cytoplasmic Domain Interactions With Syk” (Frontiers in Immunology, 2021)
# How the values were obtained:
# GST-free Syk(6-370) = target: T1, GST-free Syk(6-370) (Homo sapiens, UniProt P43405); test: Thermal denaturation assay (SYPRO orange); type: binding; conditions: Syk(6-370) 2 µM, dose-dependent
# T1 construct: Syk 6-370 (GST tag removed by thrombin cleavage) was used; GST (N, cleaved yes); made in house; host or cells: E. coli BL21(DE3)
# Procedure: In this assay, Syk 6-370 (GST tag removed by thrombin cleavage) was used. Thrombin (GE Healthcare cat#270846, reconstituted in PBS to 1 unit/ul) was applied to the GST-Syk 6-370 protein bound to the Glutathione Sepharose beads. The GST-tag was cleaved with 20 unit/1 ml of protein-GST beads in PBS overnight at room temperature. After chromatography and additional cleaning on GST-beads, the purified protein was verified by SDS-PAGE. For thermal denaturation experiments, GST-free Syk(6-370) was used at a final concentration of 2 µM and SYPRO orange (Thermo Scientific, cat# S6650) at a 0.08% (v/v) dilution (from a 5000x stock). Compounds were used at indicated concentrations. Numerous reaction buffers were initially screened, and a final buffer containing 25 mM HEPES (pH 7.5) with 100 mM NaCl was used. Assays were performed in 20 µl volumes, in triplicate, in 384-well plates (Applied Biosystems MicroAmp 384-well clear optical reaction plate, catalogue #4483285). Plates were sealed with Applied Biosystems Optical Adhesive Cover (cat#4360954) and centrifuged for 2 min at 800 × g at room temperature. Thermal denaturation was measured on a Quant Studio 6 Flex Real-time PCR system (Applied Biosystems). […]
# [1] = system: Syk phosphorylation in THP-1 cells; test: Integrin α4β1-induced phosphorylation of Syk in THP-1 cells plated on CS-1; type: cell-based, human
# Procedure: Compound loading of cells was facilitated by glycerol shock ([32], [33]). Methods were first optimized with the cell-impermeable fluorophore Sulfo-Cy5 (see Supplemental Figure S5 ). For analysis of compound inhibition of integrin signaling, 3 × 10^6 THP-1 cells were incubated in 200 ul serum-free RPMI containing 15% glycerol and ceftazidime (at indicated concentrations) for 1 h at 20°C. RPMI (3 ml, room temperature) containing ceftazidime (at indicated concentrations) was added to the cells to dilute the glycerol, and the cells were further incubated for 10 min (room temperature). Cells were then plated onto CS-1-BSA-coated plates for 15 min at 37°C, lysed in RIPA buffer (1% Triton X-100, 50 mM Tris-HCl pH 7.2, 150 mM NaCl, 0.25% NaDOC, 0.05% SDS, 2 mM PMSF, 1 mM NaF, 1 mM Na3VO4, and protease inhibitor cocktail) (AEBSF, Aprotinin, E-64, Bestatin, Leupeptin and Pepstatin; VWR Cat#97063-010), and the lysates were subjected to Western blot as described below.
# Syk phosphorylation assays were performed by immobilizing vascular cell adhesion molecule-1 (VCAM)-1 (3 ug/ml), CS-1-BSA (10 ug/ml), or specific monoclonal antibodies (anti-FcγRI mAb 276426, anti-α4β1 mAb 19H8, anti-β2 mAb 76C3, anti-αvβ3 mAb LM609 all at 5 ug/ml) overnight at 4°C in Tris-HCl pH 7.5, 150 mM NaCl, in 6-well plates (non-tissue culture treated, Becton Dickenson, cat# BD351146). […] After electrophoresis, proteins were transferred to nitrocellulose for 1 h 100 V room temperature, blocked in 5% non-fat milk in TBS-T, and probed with the indicated primary antibody at 1:1,000 overnight at 4°C, followed by species-appropriate HRP secondary antibody (Southern Biotech) at 1:5,000 (30 min at room temperature), and detected using Pierce West Pico (Thermo Scientific cat# 34580). […]
# Figure 4 Ceftazidime inhibition of integrin signaling. (A) Dose-response curves comparing ceftazidime antagonist activity against integrin β1A, β2, and β3 cytoplasmic domains binding to Syk as measured in AlphaScreen assays. […] Data are expressed as mean fluorescence (Fl520) ± the range from duplicate determinations. […]
smiles,measurement,setting,value
CC(C)(O/N=C(\C(=O)N[C@@H]1C(=O)N2C(C(=O)[O-])=C(C[n+]3ccccc3)CS[C@H]12)c1csc(N)n1)C(=O)O [ceftazidime],effect on melting temperature (Tm) of Syk(6-370),GST-free Syk(6-370),decreased
same,integrin α4β1 induced phosphorylation of Syk,"[1]; 100 µM loaded by glycerol shock, plated on CS-1, immunoprecipitation and western blot",inhibited
same,α4β1-induced phosphorylation of Syk (pY352),"[1]; ceftazidime loaded by glycerol shock, indicated doses, cells plated on CS-1",inhibited
same,α4β1 signaling through Syk,"[1]; drug simply added to THP-1 cells, no glycerol loading",negative
